Measurements published in ChEMBL document CHEMBL1201862, “PubChem BioAssay data set” (2004).
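Protocol summary: plate cells (96-well), add compound at 5 concentrations, incubate 48 h, interpolate endpoints linearly. At the GI50, growth is halved.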 Calls of active or inactive are those of the source. No stated cut-off is given here; in the data, active = GI50 up to about 1.1 µM and inactive = higher.

Key:
Experiment in all cases: NCI-60 cell line screen, 48 h
[1] = system: OVCAR-8
[2] = system: NCI/ADR-RES
[3] = system: MDA-MB-231
[4] = system: NCI-H226
[5] = system: LOX IMVI
[6] = system: SK-MEL-2
[7] = system: SK-MEL-5
[8] = system: RXF 393
[9] = system: UO-31
[10] = system: HOP-92
[11] = system: CCRF-CEM
[12] = system: HCT-15
[13] = system: OVCAR-5
[14] = system: U-251
[15] = system: Hs-578T
[16] = system: HL-60
[17] = system: SR
[18] = system: SNB-19
[19] = system: UACC-62
[20] = system: T47D

CC1(C)N=C2C(=O)c3c([nH]c4ccccc34)[C@]3(C)CCC1CC23 (stereo partly drawn)
GI50 [1]: > 6.25 µM (inactive) | GI50 [2]: > 6.25 µM (inactive) | GI50 [3]: > 6.25 µM (inactive) | GI50 [4]: > 6.25 µM (inactive) | GI50 [5]: > 6.25 µM (inactive) | GI50 [6]: > 6.25 µM (inactive) | GI50 [7]: > 6.25 µM (inactive) | GI50 [8]: > 6.25 µM (inactive) | GI50 [9]: > 6.25 µM (inactive) | GI50 [10]: > 6.25 µM (inactive) | GI50 [11]: > 6.25 µM (inactive) | GI50 [12]: > 6.25 µM | GI50 [13]: > 6.25 µM (inactive) | GI50 [14]: > 6.25 µM (inactive) | GI50 [15]: > 6.25 µM (inactive) | GI50 [16]: > 6.25 µM (inactive) | GI50 [17]: > 6.25 µM (inactive)

O=C(O)CN(CC(=O)O)Cc1cc(C#Cc2ccc(C#Cc3ccccc3)cc2)cc(CN(CC(=O)O)CC(=O)O)n1
GI50 [1]: 11.5 µM (inactive) | GI50 [2]: 12.7 µM (inactive) | GI50 [18]: 5.75 µM (inactive) | GI50 [3]: 7.11 µM (inactive) | GI50 [4]: 12.2 µM (inactive) | GI50 [5]: 11.1 µM (inactive) | GI50 [6]: 29.2 µM (inactive) | GI50 [7]: 27.3 µM (inactive) | GI50 [8]: 15.7 µM (inactive) | GI50 [9]: 5.68 µM (inactive) | GI50 [10]: 22.9 µM (inactive) | GI50 [11]: 29.4 µM (inactive) | GI50 [12]: 5.98 µM | GI50 [13]: 26.4 µM (inactive) | GI50 [14]: 5.11 µM (inactive) | GI50 [15]: 46.8 µM (inactive) | GI50 [16]: 12.9 µM (inactive) | GI50 [19]: 12.4 µM (inactive) | GI50 [17]: 18.2 µM (inactive)

C=C(C)[C@@]1(O)CCC[C@H]1NC(=O)OC(C)(C)C
GI50 [1]: > 100 µM (inactive) | GI50 [2]: > 100 µM (inactive) | GI50 [18]: > 100 µM (inactive) | GI50 [3]: > 100 µM (inactive) | GI50 [4]: > 100 µM (inactive) | GI50 [5]: > 100 µM (inactive) | GI50 [6]: > 100 µM (inactive) | GI50 [7]: > 100 µM (inactive) | GI50 [8]: > 100 µM (inactive) | GI50 [9]: > 100 µM (inactive) | GI50 [10]: > 100 µM (inactive) | GI50 [11]: 84.9 µM (inactive) | GI50 [12]: > 100 µM | GI50 [13]: > 100 µM (inactive) | GI50 [20]: > 100 µM (inactive) | GI50 [14]: > 100 µM (inactive)

Cc1ccc2ccccc2c1CC1S(=O)(=O)OCCOS1(=O)=O
GI50 [1]: 14.5 µM (inactive) | GI50 [2]: 19.1 µM (inactive) | GI50 [18]: 12.7 µM (inactive) | GI50 [3]: 13.6 µM (inactive) | GI50 [5]: 7.94 µM (inactive) | GI50 [6]: 16.7 µM (inactive) | GI50 [7]: 12.8 µM (inactive) | GI50 [9]: 14.1 µM (inactive) | GI50 [11]: 6.31 µM (inactive) | GI50 [12]: 18.2 µM | GI50 [13]: 11.9 µM (inactive) | GI50 [14]: 12 µM (inactive) | GI50 [16]: 2.12 µM (inactive) | GI50 [17]: 7.64 µM (inactive)

COC(=O)C(=O)C1CCCCC(C2=NC3NN=C(N)N3C2=O)C1=O (stereo not drawn)
GI50 [1]: > 100 µM (inactive) | GI50 [18]: > 100 µM (inactive) | GI50 [4]: > 100 µM (inactive) | GI50 [5]: > 100 µM (inactive) | GI50 [6]: > 100 µM (inactive) | GI50 [7]: > 100 µM (inactive) | GI50 [8]: 63 µM (inactive) | GI50 [9]: > 100 µM (inactive) | GI50 [10]: > 100 µM (inactive) | GI50 [11]: > 100 µM (inactive) | GI50 [12]: > 100 µM | GI50 [13]: > 100 µM (inactive) | GI50 [14]: > 100 µM (inactive) | GI50 [16]: > 100 µM (inactive) | GI50 [19]: > 100 µM (inactive) | GI50 [17]: > 100 µM (inactive)

Cc1c(Cl)ccc2c1NC(=O)C2(O)CC(=O)c1ccc(Cl)cc1 (stereo not drawn)
GI50 [1]: 34.9 µM (inactive) | GI50 [18]: 97.3 µM (inactive) | GI50 [4]: > 55.2 µM (inactive) | GI50 [5]: 19.7 µM (inactive) | GI50 [6]: > 46 µM (inactive) | GI50 [7]: 53.3 µM (inactive) | GI50 [8]: 31.2 µM (inactive) | GI50 [9]: > 100 µM (inactive) | GI50 [10]: 69.2 µM (inactive) | GI50 [11]: 14.5 µM (inactive) | GI50 [12]: 28.2 µM | GI50 [13]: > 100 µM (inactive) | GI50 [14]: 60.8 µM (inactive) | GI50 [16]: 28.6 µM (inactive) | GI50 [19]: 33.5 µM (inactive) | GI50 [17]: 13.9 µM (inactive)

Cc1cccc(C)c1NC(=O)C(=O)CC(=O)CO
GI50 [1]: > 100 µM (inactive) | GI50 [18]: > 100 µM (inactive) | GI50 [4]: > 100 µM (inactive) | GI50 [5]: > 100 µM (inactive) | GI50 [6]: > 100 µM (inactive) | GI50 [7]: > 100 µM (inactive) | GI50 [8]: > 100 µM (inactive) | GI50 [9]: > 100 µM (inactive) | GI50 [10]: > 100 µM (inactive) | GI50 [11]: > 100 µM (inactive) | GI50 [12]: > 100 µM | GI50 [13]: > 100 µM (inactive) | GI50 [14]: > 100 µM (inactive) | GI50 [16]: > 100 µM (inactive) | GI50 [19]: > 100 µM (inactive) | GI50 [17]: > 100 µM (inactive)

C/C=C/C/C=C/CCC(=O)C1OC1C(N)=O (stereo not drawn)
GI50 [1]: 13.3 µM (inactive) | GI50 [2]: 20 µM (inactive) | GI50 [18]: 18.2 µM (inactive) | GI50 [3]: 16.5 µM (inactive) | GI50 [5]: 13.2 µM (inactive) | GI50 [6]: 18.6 µM (inactive) | GI50 [7]: 15 µM (inactive) | GI50 [8]: 9.4 µM (inactive) | GI50 [9]: 11.8 µM (inactive) | GI50 [10]: 16 µM (inactive) | GI50 [11]: 11.4 µM (inactive) | GI50 [12]: 12.6 µM | GI50 [13]: 18.8 µM (inactive) | GI50 [14]: 16.8 µM (inactive) | GI50 [15]: 22.8 µM (inactive) | GI50 [19]: 15.9 µM (inactive) | GI50 [17]: 10.6 µM (inactive)

CCCCc1c2c(nc3c1CCc1cc4c(nc1-3)-c1nc3c(c(CCCC)c1CC4)CCC/C3=C\c1ccccc1)/C(=C/c1ccccc1)CCC2
GI50 [1]: > 100 µM (inactive) | GI50 [18]: 35.9 µM (inactive) | GI50 [4]: > 100 µM (inactive) | GI50 [5]: > 100 µM (inactive) | GI50 [6]: 35.2 µM (inactive) | GI50 [7]: 69.7 µM (inactive) | GI50 [8]: 23.3 µM (inactive) | GI50 [9]: > 100 µM (inactive) | GI50 [10]: > 100 µM (inactive) | GI50 [11]: 48.6 µM (inactive) | GI50 [12]: > 100 µM | GI50 [13]: > 100 µM (inactive) | GI50 [14]: 47.3 µM (inactive) | GI50 [16]: 62.1 µM (inactive) | GI50 [19]: 97.3 µM (inactive) | GI50 [17]: > 100 µM (inactive)

S=C(N/N=C(/c1ccccc1)c1ccccn1)Nc1ccc(Cl)cc1
GI50 [1]: 0.0444 µM (active) | GI50 [2]: 0.195 µM (active) | GI50 [18]: 3.02 µM (inactive) | GI50 [3]: < 0.0106 µM (active) | GI50 [4]: 0.542 µM (active) | GI50 [5]: 0.164 µM (active) | GI50 [6]: 0.455 µM (active) | GI50 [7]: 0.403 µM (active) | GI50 [8]: 1.85 µM (inactive) | GI50 [9]: 0.543 µM (active) | GI50 [10]: 2.11 µM (inactive) | GI50 [11]: < 0.0155 µM (active) | GI50 [12]: 0.067 µM | GI50 [13]: 0.0705 µM (active) | GI50 [14]: 0.124 µM (active) | GI50 [15]: 0.873 µM (active) | GI50 [16]: < 0.01 µM (active) | GI50 [19]: 0.59 µM (active) | GI50 [17]: < 0.0204 µM (active)

NC(CCC(=O)Nc1ccc(O)cc1)C(=O)O (stereo not drawn)
GI50 [1]: > 100 µM (inactive) | GI50 [18]: > 100 µM (inactive) | GI50 [4]: > 100 µM (inactive) | GI50 [5]: > 100 µM (inactive) | GI50 [6]: > 100 µM (inactive) | GI50 [7]: > 100 µM (inactive) | GI50 [8]: > 100 µM (inactive) | GI50 [9]: > 100 µM (inactive) | GI50 [10]: > 100 µM (inactive) | GI50 [11]: > 100 µM (inactive) | GI50 [12]: > 100 µM | GI50 [13]: > 100 µM (inactive) | GI50 [14]: > 100 µM (inactive) | GI50 [16]: > 100 µM (inactive) | GI50 [19]: > 100 µM (inactive) | GI50 [17]: > 100 µM (inactive)

Fc1ccc(C2SCc3nc4ccccc4n32)cc1 (stereo not drawn)
GI50 [1]: 49 µM (inactive) | GI50 [18]: 6.1 µM (inactive) | GI50 [4]: 37.4 µM (inactive) | GI50 [5]: 49.2 µM (inactive) | GI50 [6]: 39.6 µM (inactive) | GI50 [7]: 15.8 µM (inactive) | GI50 [8]: 17.2 µM (inactive) | GI50 [9]: 23 µM (inactive) | GI50 [10]: 19.9 µM (inactive) | GI50 [11]: 42.1 µM (inactive) | GI50 [12]: 34.8 µM | GI50 [13]: 21.4 µM (inactive) | GI50 [14]: 51.3 µM (inactive) | GI50 [16]: 22.3 µM (inactive) | GI50 [19]: > 10 µM (inactive) | GI50 [17]: 27 µM (inactive)
